# Reference: PubChem BioAssay AID792 (PCMD, 2007)
# Results filed as inconclusive are left out. Activity calls are given as the source filed them. The rule behind the calls is not given here.
# Molecular target: S. cerevisiae eIF2B mutant, luciferase reporter luminescence
# Experiment: potency on yeast eIF2B luminescence signal – S. cerevisiae, mutant, wild-type, growth, dose response (AID 792)
# [1] = measured here: mutant yeast growth
# [2] = S. cerevisiae wild-type, luminescence
Structure (SMILES),IC50,IC50 [1] [µM],IC50 [2] [µM]
Cn1c(/N=C/c2c(O)ccc3ccccc23)nc2ccccc21,> 100 µM (inactive),> 100,
COc1ccc(C(=O)Nn2c(C)nnc2-n2nc(C)cc2C)cc1OC,> 100 µM (inactive),> 100,
Cc1cc2c(c(=O)n1CC1CCCO1)C(c1ccco1)C(C#N)=C(N)O2 (stereo not drawn),> 100 µM (inactive),> 100,
CN(C)C(=O)Oc1ccc(OC(=O)c2ccccc2)cc1,,> 100,
CC(=O)Nc1cc(C(F)(F)F)ccc1OCCOc1ccccc1,> 100 µM (inactive),> 100,
Cc1c(C(=O)N2CCCC2)sc(NC(=O)c2ccc(Cl)cc2)c1C#N,> 100 µM (inactive),> 100,
O=C(Nc1ccccn1)c1cc2ccccc2o1,inactive,56.3,4.46
COC(=O)c1ccccc1NC(=O)CSc1nc(-c2ccco2)cc(C(F)(F)F)n1,> 100 µM (inactive),> 100,
CCOC(=O)N1CCN(C(=O)c2nn(-c3cc(OC)cc(OC)c3)c(=O)c3ccccc23)CC1,> 100 µM (inactive),> 100,
O=C(CC(Nc1ccccc1)C(=O)O)c1ccccc1 (stereo not drawn),> 100 µM (inactive),> 100,
Nc1nc(NCc2ccccc2)nc(-c2ccccc2)n1,> 100 µM (inactive),> 100,
CCN1CCN(c2cc(-c3ccccc3)nc3cc(-c4cccc(F)c4)nn23)CC1,inactive,8.98,6.87
CCC(C(=O)NCc1ccc(OC)cc1)n1nc(C)n2c(cc3occc32)c1=O (stereo not drawn),> 100 µM (inactive),> 100,
COC(=O)[C@H](Cc1ccccc1)NC(=O)NCc1ccccc1OC,> 100 µM (inactive),> 100,
Cc1ccc2c(c1)N(CC(=O)NC1CCC(C)CC1)C(=O)CO2 (stereo not drawn),> 100 µM (inactive),> 100,
CCOc1ccc(C2NC(=O)NC(C)=C2C(=O)OC)cc1C (stereo not drawn),inactive,33.3,
COC(=O)Cn1c2ccc(OC)cc2c2nc3ccccc3nc21,> 100 µM (inactive),> 100,
CCCCN1C(=O)CN(CCc2ccccc2)C(=O)C1c1ccc(OC)cc1 (stereo not drawn),> 100 µM (inactive),> 100,
C=CCc1c(C)nc(SC(C)C)[nH]c1=O,> 100 µM (inactive),> 100,
Nn1c(COc2cccc(Br)c2)nnc1SCC(=O)N1CCc2ccccc2C1,> 100 µM (inactive),> 100,
CCOc1ccc2cc(/C=C/C(=O)c3ccco3)c(Cl)nc2c1,> 100 µM (inactive),> 100,
CCC(C)(C(=O)NC1CCCCC1)N(Cc1ccco1)C(=O)c1ccc2c(c1)OCO2 (stereo not drawn),> 100 µM (inactive),> 100,
CCN(CC)c1ccc(NC(=O)c2cccc(OC)c2)c(C)c1,inactive,> 100,> 100
COc1ccc(S(=O)(=O)N2CCCCC2)cc1C(C)C,> 100 µM (inactive),> 100,
CCC(Sc1nc2n[nH]c(C)c2c(=N)n1-c1ccc(C)c(Cl)c1)C(=O)N1CCOCC1 (stereo not drawn),> 100 µM (inactive),> 100,
CCOC(=O)c1ccc(N2C(=O)C=CC2=O)cc1,inactive,6.02,
Cc1ccc(C(=O)Nc2ncc(C)s2)o1,inactive,> 100,17.6

Structure (SMILES),IC50,IC50 [1] [µM],IC50 [2] [µM]
N#CCN1CCN(CC(=O)Nc2ccc(OCc3ccccc3)cc2)CC1,> 100 µM (inactive),> 100,
CC(C)(C)SCCNC(=O)c1ccc(Cl)c(S(=O)(=O)N2CCOCC2)c1,> 100 µM (inactive),> 100,
CCN1CCN(c2cc(C(C)(C)C)nc3c(-c4ccccc4)c(C)nn23)CC1,inactive,15.8,
CCOC(=O)CC1=NC(=O)CS1,> 100 µM (inactive),> 100,
CCC(=O)N1CCc2cc(S(=O)(=O)NC(C(=O)NCc3ccc(F)cc3)C(C)C)ccc21 (stereo not drawn),> 100 µM (inactive),> 100,
Cc1ccc(S(=O)(=O)n2nc(OC(=O)c3ccco3)cc2N)cc1,> 100 µM (inactive),> 100,
O=C(CCSc1nnc(-c2ccco2)o1)Nc1ccc(Cl)cc1,> 100 µM (inactive),> 100,
O=C(NCCC1=CCCCC1)c1ccc(=O)oc1,> 100 µM (inactive),> 100,
Cc1cc2ncc(C(=O)Nc3ccccc3)c(C)n2n1,> 100 µM (inactive),> 100,
Fc1ccc2c(c1)nnn2C1CCN(Cc2nnnn2C2CCCCC2)CC1,> 100 µM (inactive),> 100,
Cc1csc(NC(=O)NC2(C(F)(F)F)Oc3ccccc3O2)n1,> 100 µM (inactive),> 100,
Cc1ccc(-c2nnc3ccc(SCC(=O)NCc4ccco4)nn23)cc1,> 100 µM (inactive),> 100,
COC(=O)CC1Oc2ccccc2N(Cc2ccc(C)cc2)C1=O (stereo not drawn),> 100 µM (inactive),> 100,
O=S(=O)(N1CCCCC1)N1CCCN(S(=O)(=O)N2CCCCC2)CC1,> 100 µM (inactive),> 100,
CCOC(=O)c1c(-c2ccco2)csc1NC(=O)CSc1nnc(N)s1,> 100 µM (inactive),> 100,
C=CCc1c(C)nc(C)nc1N/N=C/c1ccccc1O,> 100 µM (inactive),> 100,
Cc1ccnc2nc(C(=O)Nc3ccc(N4CCOCC4)cc3)nn12,inactive,> 100,11.1
Cc1ccc(C)c(N=C2CCCN2Cc2ccccc2)c1C#N,> 100 µM (inactive),> 100,
O=C(Nc1nc(-c2ccc(S(=O)(=O)N3CCCCCC3)cc2)cs1)c1cccs1,> 100 µM (inactive),> 100,
COc1ccc(Nc2oc(COc3cccc(C)c3)nc2C#N)cc1,> 100 µM (inactive),> 100,
O=c1c(Cl)c(N2CCCCC2)cnn1-c1nc2ccccc2[nH]1,inactive,> 100,3.69
COC(=O)c1sc(NC(=O)COc2cccc3ccccc23)nc1C,> 100 µM (inactive),> 100,
COc1ccc(C2(C)NC(=O)N(CC(=O)Nc3ccc4c(c3)OCO4)C2=O)cc1OC (stereo not drawn),> 100 µM (inactive),> 100,
COC(=O)CSc1nnc2n(-c3ccc(OC)cc3)c(=O)c3c4c(sc3n12)CCCCC4,> 100 µM (inactive),87.1,
COc1cc(/C=C2\C(=O)N(CCC#N)N=C2C)c(Br)cc1OC(C)C,> 100 µM (inactive),> 100,
Cc1ccc2nc(/C(C#N)=C\c3ccc(N4CCOCC4)o3)[nH]c2c1,> 100 µM (inactive),> 100,
CCC(CC)c1nnc(NC(=O)c2cccc(S(=O)(=O)N3CCc4ccccc43)c2)s1,> 100 µM (inactive),> 100,

Structure (SMILES),IC50,IC50 [1] [µM],IC50 [2] [µM]
COc1ccc(C2C=C(c3ccccc3)Nc3nnnn32)cc1 (stereo not drawn),> 100 µM (inactive),> 100,
Nn1cnnc1SC1CCCCC1NS(=O)(=O)c1ccccc1 (stereo not drawn),> 100 µM (inactive),> 100,
CC(=O)Nc1ccc(C(=O)NC2CCCC2)cc1,> 100 µM (inactive),> 100,
COc1ccc(CCNC(=O)c2ccc(N3CCCC3=O)cc2)cc1OC,> 100 µM (inactive),> 100,> 100
Cn1c(=O)n(CC(=O)N2CCC3(CC2)OCCO3)c(=O)c2ccccc21,> 100 µM (inactive),> 100,
O=c1c2ccccc2nc(-c2ccco2)n1-c1nc2ccccc2s1,> 100 µM (inactive),> 100,
O=C(CCN1CCN(C(=O)c2ccco2)CC1)Nc1ccc(F)cc1,> 100 µM (inactive),> 100,
CCCOc1ccc(N2C(=O)CC(SC(=NCC)Nc3cccc(F)c3)C2=O)cc1 (stereo not drawn),> 100 µM (inactive),> 100,
Nc1ccc2oc(CCc3ccccc3)nc2c1,> 100 µM (inactive),> 100,
O=C(CC1Nc2ccccc2NC1=O)NC1CCCCC1 (stereo not drawn),> 100 µM (inactive),> 100,
COCc1cc(=O)[nH]c(Nc2nc3ccc(C)cc3o2)n1,> 100 µM (inactive),> 100,
O=C(C1CCN(S(=O)(=O)N2CCOCC2)CC1)N1CCOCC1,> 100 µM (inactive),> 100,> 100
CCCCOc1ccc(OCCCC)c2c1NC1(N2)C(=O)N(C(C)=O)c2ccccc21,> 100 µM (inactive),> 100,
COc1ccccc1NC(=S)NNC(=O)c1ccccc1,> 100 µM (inactive),> 100,
Cc1ccc(OCCCC(=O)Nc2ccc(S(=O)(=O)Nc3cc(C)on3)cc2)cc1,> 100 µM (inactive),> 100,
COc1ccccc1-n1cnnc1SCC(=O)c1cc(C)n(Cc2cccs2)c1C,> 100 µM (inactive),> 100,
C=CCN(C(=O)CCC(=O)O)C1CC(=O)N(c2ccc(OC)cc2)C1=O (stereo not drawn),> 100 µM (inactive),> 100,
N#Cc1cc2ccccc2nc1SCc1cccnc1,> 100 µM (inactive),> 100,
CCN(CC)c1ncnc2sc(C(=O)N3CCN(c4ccccc4)CC3)c(C)c12,> 100 µM (inactive),> 100,
COc1ccc2c(c1)CCc1c(C(=O)NCc3cccnc3)noc1-2,> 100 µM (inactive),> 100,
CC(=O)/C=C(\C)Nc1ccc(-c2cnc(-c3ccccc3)o2)cc1,inactive,> 100,> 100
CCOC(=O)C1=C(C)NC(C)=C(C(=O)OCC)C1C(=O)OCC(=O)N1CCc2ccccc2C1,> 100 µM (inactive),> 100,
Cc1cccc(N2C(=O)c3cccnc3C2=O)c1,> 100 µM (inactive),> 100,
C=CCSc1nnc2c(n1)OC(c1cccnc1)N(C(C)=O)c1ccccc1-2 (stereo not drawn),> 100 µM (inactive),> 100,
CCC(C)c1ccc(OCC(=O)O)cc1 (stereo not drawn),> 100 µM (inactive),> 100,
CNC(=O)CCn1nc(-c2ccccc2)c2ccccc2c1=O,> 100 µM (inactive),> 100,
